Source: article PMC12566593, “Effects of Different Centrifugation Parameters on Equilibrium Solubility Measurements” (Methods and Protocols, 2025)
Values after ≈ are worked out from the molar mass of the structure shown. Read-outs that look alike come from different tables or passages of the source.

How the values were obtained:
[1] = Ionization state calculated from pKa and buffer pH; format: physicochemical
[2] = cited from earlier work; for Filtration: Result Range: % of reference, all filters
[3] = cited from earlier work
[4] = Equilibrium solubility, saturation shake-flask, centrifugation as phase separation; details: for solubility thermodynamic at 24 h / solubility thermodynamic: Britton-Robinson buffer; for solubility thermodynamic at 24 h: continuously stirred, no sedimentation; for solubility thermodynamic: pH 7.4, Equilibrium solubility S sed, sedimented before centrifugation
[5] = Equilibrium solubility, saturation shake-flask, sedimentation as phase separation (reference, standard protocol); details: for solubility: Britton-Robinson buffer, 6 h stirring, 18 h sedimentation, 25 °C
[6] = pH 7.4
[7] = cited from earlier work; remark: listed apart in the source

In the case of `NS(=O)(=O)c1cc2c(cc1Cl)NCNS2(=O)=O` [HCT, hydrochlorothiazide], the “Fraction in dianionic form” value ([1]; pH 8.8) is reported as 4%, the Fraction monoanionic ([1]; pH 8.8) is reported as 51% and the Fraction unionized ([1]; pH 8.8) is reported as 45%. For the same molecule, the “Filtration: Result Range” value ([2]; pH 6.0) was 83–103%, the “Filtration: Closest to Reference (100%)” value ([2]; pH 6.0) was 102% and the “Filtration: Result Range” value ([2]; pH 8.8) was 75–100%. For the same molecule, the “Filtration: Closest to Reference (100%)” value ([2]; pH 8.8) was 100%, the “Filtration: Result Range” value ([2]; pH 11.0) was 65–119% and the “Filtration: Closest to Reference (100%)” value ([2]; pH 11.0) was 100%. The pKa ([3]; first pKa for HCT) was 8.75 and the “pKa (second value)” value ([3]; second pKa of the diprotic acid) was 9.96.

In the case of `O=C(O)Cc1ccccc1Nc1c(Cl)cccc1Cl` [DICL-NA, Diclofenac sodium], the Fraction ionized ([1]; pH 2.0) is listed as “about 1%”, the Fraction ionized ([1]; pH 4.0) is listed as “around 50%” and the “Measured concentration after filtration” value ([2]; nylon filter, low pH values) is listed as “dropped to zero”. The “Filtration: Result Range” value ([2]; pH 2.0) was 0–164%, the “Filtration: Closest to Reference (100%)” value ([2]; pH 2.0) was 93% and the “Filtration: Result Range” value ([2]; pH 4.0) was 0–103%. The “Filtration: Closest to Reference (100%)” value ([2]; pH 4.0) was 103%, the “Filtration: Result Range” value ([2]; pH 10.0) was 64–99% and the “Filtration: Closest to Reference (100%)” value ([2]; pH 10.0) was 99%. The solubility thermodynamic at 24 h ([4]; 25 °C, pH 10, aqueous buffer, thermodynamic from solid, Equilibrium solubility S stir, pH 10.0, 10,000 rpm, 20 min) was 11200 µg/mL, the solubility thermodynamic at 24 h ([4]; pH 2, Equilibrium solubility S stir, pH 2.0, 5000 rpm, 5 min) was 1.64 ± 0.04 µg/mL and the solubility thermodynamic at 24 h ([4]; pH 2, Equilibrium solubility S stir, pH 2.0, 5000 rpm, 10 min) was 1.52 ± 0.22 µg/mL. The solubility thermodynamic at 24 h ([4]; pH 2, Equilibrium solubility S stir, pH 2.0, 5000 rpm, 20 min) was 1.71 ± 0.07 µg/mL, the solubility thermodynamic at 24 h ([4]; pH 2, Equilibrium solubility S stir, pH 2.0, 10,000 rpm, 5 min) was 1.82 ± 0.07 µg/mL and the solubility thermodynamic at 24 h ([4]; pH 2, Equilibrium solubility S stir, pH 2.0, 10,000 rpm, 10 min) was 1.78 ± 0.07 µg/mL. It also gave a solubility thermodynamic at 24 h ([4]; pH 2, Equilibrium solubility S stir, pH 2.0, 10,000 rpm, 20 min) of 2 ± 0.13 µg/mL, a solubility thermodynamic at 24 h ([4]; pH 4, Equilibrium solubility S stir, pH 4.0, 5000 rpm, 5 min) of 2.7 ± 0.1 µg/mL and a solubility thermodynamic at 24 h ([4]; pH 4, Equilibrium solubility S stir, pH 4.0, 5000 rpm, 10 min) of 2.69 ± 0.24 µg/mL. The solubility thermodynamic at 24 h ([4]; pH 4, Equilibrium solubility S stir, pH 4.0, 5000 rpm, 20 min) was 2.58 ± 0.16 µg/mL, the solubility thermodynamic at 24 h ([4]; pH 4, Equilibrium solubility S stir, pH 4.0, 10,000 rpm, 5 min) was 2.79 ± 0.2 µg/mL and the solubility thermodynamic at 24 h ([4]; pH 4, Equilibrium solubility S stir, pH 4.0, 10,000 rpm, 10 min) was 2.8 ± 0.11 µg/mL. It also gave a solubility thermodynamic at 24 h ([4]; pH 4, Equilibrium solubility S stir, pH 4.0, 10,000 rpm, 20 min) of 2.88 ± 0.18 µg/mL, a solubility thermodynamic at 24 h ([4]; pH 10, Equilibrium solubility S stir, pH 10.0, 5000 rpm, 10 min) of 9810 ± 318 µg/mL and a solubility thermodynamic at 24 h ([4]; pH 10, Equilibrium solubility S stir, pH 10.0, 5000 rpm, 20 min) of 10700 µg/mL. For the same molecule, the solubility thermodynamic at 24 h ([4]; pH 10, Equilibrium solubility S stir, pH 10.0, 10,000 rpm, 5 min) was 9660 ± 760 µg/mL, the “Centrifugation: Closest to Reference (100%)” value (“Centrifugation … (100%)” for short) ([4]; pH 2.0) was 100% and the “Centrifugation … (100%)” value ([4]; pH 4.0) was 99%. The “Centrifugation … (100%)” value ([4]; pH 10.0) was 98%, the solubility ([5]; pH 2, Solubility (reference), pH 2.0) was 1.67 ± 0.05 µg/mL and the solubility ([5]; pH 10, Solubility (reference), pH 10.0) was 9470 ± 327 µg/mL. For the same molecule, the “Increase of solubility compared to the unionized form” value ([5]; pH 10.0 (fully ionized) vs unionized form) was 5670 fold.

In the case of `CC(=O)[C@H]1CC[C@H]2[C@@H]3CCC4=CC(=O)CC[C@]4(C)[C@H]3CC[C@]12C` [PROG, progesterone], the “Centrifugation … (100%)” value [6] is given as 121%, the “Centrifugation: Result Range” value [6] is given as 121–148% and the “Filtration: Result Range” value ([2]; pH 7.4) is given as 55–98%. The “Filtration: Closest to Reference (100%)” value ([2]; pH 7.4) was 98%, the logP [7] was 3.48 and the solubility thermodynamic ([4]; pH 7.4, 5000 rpm, 5 min) was 10.9 ± 0.09 µg/mL (≈ 34.7 µM). It also gave a solubility thermodynamic ([4]; pH 7.4, 5000 rpm, 10 min) of 10.9 ± 0.09 µg/mL (≈ 34.7 µM), a solubility thermodynamic ([4]; pH 7.4, 5000 rpm, 20 min) of 11.5 ± 0.06 µg/mL (≈ 36.6 µM) and a solubility thermodynamic ([4]; pH 7.4, 10,000 rpm, 5 min) of 11 ± 0.12 µg/mL (≈ 35 µM). For the same molecule, the solubility thermodynamic ([4]; pH 7.4, 10,000 rpm, 10 min) was 11.6 ± 0.11 µg/mL (≈ 36.9 µM), the solubility thermodynamic ([4]; pH 7.4, 10,000 rpm, 20 min) was 12.4 ± 0.06 µg/mL (≈ 39.4 µM) and the solubility thermodynamic at 24 h ([4]; pH 7.4, Equilibrium solubility S stir, pH 7.4, 5000 rpm, 5 min) was 11 ± 0.06 µg/mL (≈ 35 µM). It also gave a solubility thermodynamic at 24 h ([4]; pH 7.4, Equilibrium solubility S stir, pH 7.4, 5000 rpm, 10 min) of 11.3 ± 0.14 µg/mL (≈ 35.9 µM), a solubility thermodynamic at 24 h ([4]; pH 7.4, Equilibrium solubility S stir, pH 7.4, 5000 rpm, 20 min) of 12.8 ± 0.05 µg/mL (≈ 40.7 µM) and a solubility thermodynamic at 24 h ([4]; pH 7.4, Equilibrium solubility S stir, pH 7.4, 10,000 rpm, 5 min) of 11 ± 0.18 µg/mL (≈ 35 µM). The solubility thermodynamic at 24 h ([4]; pH 7.4, Equilibrium solubility S stir, pH 7.4, 10,000 rpm, 10 min) was 11.7 ± 0.14 µg/mL (≈ 37.2 µM), the solubility thermodynamic at 24 h ([4]; pH 7.4, Equilibrium solubility S stir, pH 7.4, 10,000 rpm, 20 min) was 13.3 ± 0.2 µg/mL (≈ 42.3 µM) and the “Increase in measured solubility caused by centrifugation” value ([4]; vs reference, pH 7.4) was “at least 20%”. The solubility ([5]; pH 7.4, Solubility (reference), pH 7.4) was 8.98 ± 0.09 µg/mL (≈ 28.6 µM).
